Assay results reported in article PMC6895141, “Antimicrobial Efficacy of Indolicidin Against Multi-Drug Resistant Enteroaggregative Escherichia coli in a Galleria mellonella Model” (Frontiers in Microbiology, 2019).
Converted amounts (≈) assume the structure as drawn.

Experiments:
G. mellonella larvae = experiment: Melanization assay in G. mellonella larvae; assay type: in vivo, Galleria mellonella; details: infected larvae treated 3 h pi; absorbance 450 nm of hemolymph, 6 to 96 h pi
Procedure: (§1) Galleria mellonella larvae (n = 40 larvae per group) were grouped as follows: Group I (infected group), Groups II and III (infection + treatment groups), Group IV (PBS control), and Group V (AMP control). Larvae from groups I to III were infected with cocktail of MDR-EAEC strains (LD50 dose; 10 μL); groups II and III were administered 3 h post-infection (pi) with MIC dose (10 μL) of Indolicidin and Meropenem, respectively; Group IV were injected with sterile PBS whereas, group V was administered with MIC dose of Indolicidin.
For determination of the melanin production, an immune marker, the G. mellonella (n=3 larvae per group) were investigated at an interval of 6 h pi for 24 h, followed by 24 h interval till 96 h. An aliquot of the pooled haemolymph (100 µl) was transferred into 96-well microtiter plate for measuring the optical density (OD) at a wavelength of 450 nm using ELISA plate reader (Thermo Scientific Multiskan GO) with OD values of haemolymph collected from apparently healthy un-inoculated larvae as the background control.

MDR-EAEC isolates = experiment: In vitro dose- and time-dependent killing kinetics; assay type: cell-based, enteroaggregative Escherichia coli; details: Meropenem 10 μg/ml
Procedure: The in vitro growth kinetics of MDR-EAEC isolates was evaluated by incubating the log-phase bacterial cultures of each MDR-EAEC isolate (ca. 1 × 10^7 CFU/mL) in CA-MH broth with MIC (1X and 2X) concentrations of Indolicidin, in triplicates (Supplementary File S8). The desired bacterial numbers for each MDR-EAEC isolate and Indolicidin were suspended in CA-MH broth as follows: Group I, 10^7 CFU of MDR-EAEC (50 μL) with 1X MIC Indolicidin (50 μL); Group II, 10^7 CFU of MDR- EAEC (50 μL) with MBC Indolicidin (50 μL); Group III, 10^7 CFU of MDR- EAEC (50 μL) with Meropenem (10 μg/ml; 50 μL); Group IV, 10^7 CFU of MDR- EAEC (50 μL) with CA-MH broth (50 μL) and Group V, 10^7 CFU of MDR- EAEC (50 μL) with 4X MIC Indolicidin (50 μL). To enumerate the antibacterial effect of Indolicidin on MDR-EAEC isolates, an aliquot at 10 μL from all the five groups were drawn at 0, 30, 60, 90, 120, 150, 180 min, 24, 48, and 72 h. These aliquots were serially diluted 10-fold in normal saline solution (prepared using 0.90% of sodium chloride, HiMedia Laboratories); the last three dilutions placed on EMB agar plates containing 100 μg of ampicillin ([Miles et al., 1938]) were counted after 24 h of incubation at 37°C, and the bacterial counts were expressed as log10CFU/mL. […]

MDR-EAEC strains = experiment: Survival of MDR-EAEC infected G. mellonella larvae; assay type: in vivo, Galleria mellonella; details: larvae infected with LD50 dose (10^6 CFU) MDR-EAEC cocktail, treated 3 h pi with MIC dose (10 μL); upto 120 h pi; n = 40 larvae per group
Procedure: In vivo assays were performed using the final instar of G. mellonella larvae that were stored in wood shavings at 15°C in the dark prior to the experiment ([Morgan et al., 2014]). The larvae were kept in a germ-free environment and were provided with ad libitum food during the course of experiment. Initially, LD50 dose of each MDR-EAEC strains was determined in G. mellonella larvae, and the validated LD50 dose was used further in the in vivo studies to evaluate the antibacterial effect of Indolicidin (Supplementary File S9) by injection with a Hamilton syringe (26 gage) via the last right pro-leg.
as §1

[1] = test system: MDR-EAEC isolate KY941938.1 (MDR 3); experiment: In vitro antibiotic susceptibility testing; assay type: cell-based, enteroaggregative Escherichia coli; set-up: key to Antibiotic Susceptibility testing / MIC Values, class symbol: S – Sensitive; R- Resistant; details: for Antibiotic Susceptibility testing: CLSI 2018; for MIC Values, class symbol: cells printed as S; for MIC: numeric cells
Description: (§2) The typical EAEC strains, isolated from the fecal samples of human infants with GenBank accession numbers, KY941936.1 (MDR 1); KY941937.1 (MDR 2); and KY941938.1 (MDR 3), available at Division of Veterinary Public Health, Indian Veterinary Research Institute, Bareilly were re-validated as described earlier ([Vijay et al., 2015]) and tested for antibiotic susceptibility ([Clinical and Laboratory Standards Institute [CLSI], 2018]). E. coli ATCC 25922 used as quality control strain was provided by the Department of Veterinary Public Health, College of Veterinary and Animal Sciences, Pookode, India. These bacterial strains were grown on nutrient agar medium at 37°C.

[2] = test system: MDR-EAEC isolate KY941936.1 (MDR 1); experiment: In vitro antibiotic susceptibility testing; assay type: cell-based, enteroaggregative Escherichia coli; set-up: key to Antibiotic Susceptibility testing / MIC Values, class symbol: S – Sensitive; R- Resistant; details: for Antibiotic Susceptibility testing: CLSI 2018; for MIC Values, class symbol: cells printed as S; for MIC: numeric cells
Description: as §2

[3] = test system: MDR-EAEC isolate KY941937.1 (MDR 2); experiment: In vitro antibiotic susceptibility testing; assay type: cell-based, enteroaggregative Escherichia coli; set-up: key to Antibiotic Susceptibility testing / MIC Values, class symbol: S – Sensitive; R- Resistant; details: for Antibiotic Susceptibility testing: CLSI 2018; for MIC Values, class symbol: cells printed as S; for MIC: numeric cells
Description: as §2

Compound	Antibiotic Susceptibility testing [1]	MIC Values, class symbol [1]	Antibiotic Susceptibility testing [2]	MIC Values, class symbol [2]	Antibiotic Susceptibility testing [3]	MIC Values, class symbol [3]	MIC ([1]; Escherichia coli) [µM]	MIC ([3]; Escherichia coli) [µM]	further results
C[C@@H](O)[C@H]1C(=O)N2C(C(=O)O)=C(S[C@@H]3CN[C@H](C(=O)N(C)C)C3)[C@H](C)[C@H]12 [Meropenem]									melanization (G. mellonella larvae): the melanization was lower at 6 h pi, reached its peak at 18 h pi and thereafter gradually declined; time to similar inhibition (complete elimination) in time-kill kinetic assay (MDR-EAEC isolates): 60 min; survival rate (MDR-EAEC strains): 85%
CNC(C)C1CCC(N)C(OC2C(N)CC(N)C(OC3OCC(C)(O)C(NC)C3O)C2O)O1 (centres unmarked) [GEN, Gentamicin]	S	S	S	S	S	S			
Co-trimoxazole [COT]	R		R		R				MIC [1]: >240 µM; MIC [2]: >240 µM; MIC [3]: >240 µM
CN(C)[C@@H]1C(O)=C(C(N)=O)C(=O)[C@@]2(O)C(O)=C3C(=O)c4c(O)cccc4[C@@](C)(O)[C@H]3C[C@@H]12 [TE, Tetracycline]	R		R		R		30 (≈ 13.3 µg/mL)	2 (≈ 0.889 µg/mL)	MIC ([2]; Escherichia coli): 60 µM (≈ 26.7 µg/mL)
CO/N=C(\C(=O)N[C@@H]1C(=O)N2C(C(=O)O)=C(CSc3nc(=O)c(=O)[nH]n3C)CS[C@H]12)c1csc(N)n1 [CTR, Ceftriaxone]	R		S	S	R		> 240	> 240	
Colistin sulphate	S	S	S	S	S	S			
Cc1cc(NS(=O)(=O)c2ccc(N)cc2)no1 [SXT, Sulfamethoxazole]	R		R		S				
O=C(O)c1cn(C2CC2)c2cc(N3CCNCC3)c(F)cc2c1=O [CIP, Ciprofloxacin]							60 (≈ 19.9 µg/mL)	120 (≈ 39.8 µg/mL)	
CC1(C)S[C@@H]2[C@H](NC(=O)[C@H](N)c3ccccc3)C(=O)N2[C@H]1C(=O)O [AMP, Ampicillin]	R		R		R		> 240	> 240	MIC ([2]; Escherichia coli): > 240 µM
C[C@@H](O)[C@H]1C(=O)N2C(C(=O)O)=C(SCCN=CN)C[C@H]12 [IMI, Imipenem]	S	S	S	S	S	S			
O=C(N[C@H](CO)[C@H](O)c1ccc([N+](=O)[O-])cc1)C(Cl)Cl [CL, Chloramphenicol]	S	S	S	S	S	S			
